Test results as given in ChEMBL document CHEMBL1201862, “PubChem BioAssay data set” (2004).
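1) Cells in 96-well plates. 2) Compound, 48 h, 5 concentrations. 3) Linear interpolation between surrounding doses. 4) Unreached endpoint = highest concentration. Abbreviation: GI50, concentration required for 50% inhibition of growth.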 The source made the active and inactive calls. No stated cut-off is given here; in the data, active = GI50 up to about 1.1 µM and inactive = higher.

Legend:
Test in all cases: DTP human tumour cell line panel, 48 h
SF-539 = system: SF-539
OVCAR-8 = system: OVCAR-8
RPMI-8226 = system: RPMI-8226
T47D = system: T47D
NCI/ADR-RES = system: NCI/ADR-RES
HCT-116 = system: HCT-116
HL-60 = system: HL-60
A549 = system: A549
ACHN = system: ACHN
K562 = system: K562
SK-MEL-28 = system: SK-MEL-28
SR = system: SR
SK-MEL-5 = system: SK-MEL-5
NCI-H23 = system: NCI-H23
KM12 = system: KM12
M14 = system: M14
TK-10 = system: TK-10

Structure (SMILES) | GI50 (SF-539) | GI50 (OVCAR-8) | GI50 (RPMI-8226) | GI50 (T47D) | GI50 (NCI/ADR-RES) | GI50 (HCT-116) | GI50 (HL-60) | GI50 (A549) | GI50 (ACHN) | GI50 (K562) | GI50 (SK-MEL-28) | GI50 (SR) | GI50 (SK-MEL-5) | GI50 (NCI-H23) | GI50 (KM12) | GI50 (M14) | GI50 (TK-10)
CC1(CCC(=O)OC2CCCCC2)OCCO1 | > 100 µM (inactive) | > 100 µM (inactive) | > 100 µM (inactive) | > 100 µM (inactive) | > 100 µM (inactive) | > 100 µM (inactive) | > 100 µM (inactive) | > 100 µM (inactive) | > 100 µM (inactive) | > 100 µM (inactive) | > 100 µM (inactive) | > 100 µM (inactive) | > 100 µM (inactive) | > 100 µM (inactive) | > 100 µM (inactive) | > 100 µM (inactive) | > 100 µM (inactive)
Oc1ccc(C[C@@H]2CN[C@H](Cc3ccc(O)c(Br)c3)CN2)cc1 | > 100 µM (inactive) | > 100 µM (inactive) | – | > 100 µM (inactive) | > 100 µM (inactive) | > 100 µM (inactive) | > 100 µM (inactive) | > 100 µM (inactive) | > 100 µM (inactive) | – | > 100 µM (inactive) | > 100 µM (inactive) | – | > 100 µM (inactive) | > 100 µM (inactive) | > 100 µM (inactive) | > 100 µM (inactive)
[N-]=[N+]=NC1=C(c2ccccn2)C(=O)c2cccc3cccc1c23 | 32.8 µM (inactive) | – | 34 µM (inactive) | > 100 µM (inactive) | 50.8 µM (inactive) | 8.63 µM (inactive) | 20.7 µM (inactive) | 27.7 µM (inactive) | 15.7 µM (inactive) | 23.2 µM (inactive) | > 100 µM (inactive) | 27.7 µM (inactive) | 6.84 µM (inactive) | 19.2 µM (inactive) | 25.4 µM (inactive) | 23.9 µM (inactive) | 41.7 µM (inactive)
Nc1ncc(Br)c(NCC2(CO)CCC2)n1 | > 100 µM (inactive) | > 100 µM (inactive) | 42.8 µM (inactive) | 1.69 µM (inactive) | 95.5 µM (inactive) | > 100 µM (inactive) | > 100 µM (inactive) | > 100 µM (inactive) | > 100 µM (inactive) | > 100 µM (inactive) | > 100 µM (inactive) | > 100 µM (inactive) | 54.5 µM (inactive) | > 100 µM (inactive) | > 100 µM (inactive) | – | > 100 µM (inactive)
CC(C)COC(=O)OC(=O)c1ccc(N(C)Cc2cnc3nc(N)nc(N)c3n2)cc1 | 10.8 µM (inactive) | 6.12 µM (inactive) | > 80.9 µM (inactive) | > 100 µM (inactive) | > 36.3 µM (inactive) | 2.43 µM (inactive) | 8.34 µM (inactive) | 5.61 µM (inactive) | 11.4 µM (inactive) | 0.466 µM (active) | > 86.1 µM (inactive) | 0.521 µM (active) | 5.22 µM (inactive) | 11 µM (inactive) | 26.5 µM (inactive) | 9.44 µM (inactive) | > 88.1 µM (inactive)
C[C@H](CO)C1=CC(C#C[Si](C)(C)C)N(C(=O)Oc2ccccc2)c2ccccc21 (stereo partly drawn) | 16 µM (inactive) | 17.7 µM (inactive) | 20 µM (inactive) | 15.9 µM (inactive) | 3.18 µM (inactive) | 10.8 µM (inactive) | 10.4 µM (inactive) | 11.6 µM (inactive) | 13.8 µM (inactive) | 4.54 µM (inactive) | 16.6 µM (inactive) | 3.4 µM (inactive) | 12.7 µM (inactive) | 4.29 µM (inactive) | 4.93 µM (inactive) | 7.69 µM (inactive) | 17 µM (inactive)
CC(C)(C)/C(O)=C\c1nc2cc(C(F)(F)F)ccc2[nH]c1=O | – | > 100 µM (inactive) | > 100 µM (inactive) | > 100 µM (inactive) | > 100 µM (inactive) | > 100 µM (inactive) | 0.53 µM (active) | > 100 µM (inactive) | > 100 µM (inactive) | 27.9 µM (inactive) | > 100 µM (inactive) | > 10 µM (inactive) | > 100 µM (inactive) | > 100 µM (inactive) | > 100 µM (inactive) | > 100 µM (inactive) | > 100 µM (inactive)
O=C(OCc1ccccc1)N1c2cc([N+](=O)[O-])ccc2C(=O)N2CCC[C@H]2C1O (stereo partly drawn) | > 100 µM (inactive) | > 100 µM (inactive) | > 100 µM (inactive) | > 100 µM (inactive) | > 100 µM (inactive) | > 100 µM (inactive) | > 100 µM (inactive) | > 100 µM (inactive) | > 100 µM (inactive) | > 100 µM (inactive) | > 100 µM (inactive) | > 100 µM (inactive) | > 100 µM (inactive) | > 100 µM (inactive) | > 100 µM (inactive) | > 100 µM (inactive) | > 100 µM (inactive)
O=C(NCc1ccccc1)c1cc2ccccc2o/c1=N\c1cccc(C(F)(F)F)c1 | – | 56.1 µM (inactive) | 30.3 µM (inactive) | 28.1 µM (inactive) | 47.1 µM (inactive) | 55.6 µM (inactive) | 20.5 µM (inactive) | 47.1 µM (inactive) | 46.3 µM (inactive) | 36.5 µM (inactive) | > 100 µM (inactive) | 21.1 µM (inactive) | 26.4 µM (inactive) | 57.7 µM (inactive) | 48.6 µM (inactive) | 87.3 µM (inactive) | 50.4 µM (inactive)
S=C1SCN(Cc2ccco2)CN1c1ccc(Br)cc1 | 14.5 µM (inactive) | 23.3 µM (inactive) | 15.4 µM (inactive) | 20.1 µM (inactive) | 18.3 µM (inactive) | 12.2 µM (inactive) | 13.2 µM (inactive) | 18.5 µM (inactive) | 16 µM (inactive) | 2.45 µM (inactive) | 17.8 µM (inactive) | 7.6 µM (inactive) | 12.1 µM (inactive) | 14.7 µM (inactive) | 11.1 µM (inactive) | 13.8 µM (inactive) | 22.8 µM (inactive)
Oc1ccc(Br)cc1/C=N/c1c(NC2CCCCC2)oc2ccc(Br)cc12 | 61.2 µM (inactive) | 37.4 µM (inactive) | 7.18 µM (inactive) | 8.34 µM (inactive) | 45.5 µM (inactive) | 13.7 µM (inactive) | 5.53 µM (inactive) | 54 µM (inactive) | 35.8 µM (inactive) | 10.7 µM (inactive) | 41.5 µM (inactive) | 45.9 µM (inactive) | 40.6 µM (inactive) | 15.5 µM (inactive) | 21 µM (inactive) | – | 40.6 µM (inactive)
Cc1nc2c(sc3nc4c(cc32)CCC4)c(=O)o1 | 40.5 µM (inactive) | 36.1 µM (inactive) | 48.9 µM (inactive) | > 78 µM (inactive) | > 56.1 µM (inactive) | 32.8 µM (inactive) | 49.9 µM (inactive) | > 50.5 µM (inactive) | > 66.7 µM (inactive) | 57.9 µM (inactive) | 46.7 µM (inactive) | 39.3 µM (inactive) | 37.5 µM (inactive) | 67.9 µM (inactive) | > 87.1 µM (inactive) | 64.3 µM (inactive) | > 64.6 µM (inactive)
CC(=O)/C(=C\n1c(=S)[nH]c2ccc([N+](=O)[O-])cc21)C(=O)Nc1ccccc1C | 8.26 µM (inactive) | > 100 µM (inactive) | > 100 µM (inactive) | > 100 µM (inactive) | > 100 µM (inactive) | > 100 µM (inactive) | > 100 µM (inactive) | > 100 µM (inactive) | > 100 µM (inactive) | > 100 µM (inactive) | > 100 µM (inactive) | 88.5 µM (inactive) | 78.3 µM (inactive) | > 100 µM (inactive) | – | > 100 µM (inactive) | –
CC(C)Oc1ccc(CNC2=NCCO2)c2ccccc12 | 9.66 µM (inactive) | 15.2 µM (inactive) | 9.77 µM (inactive) | 11.9 µM (inactive) | 12.3 µM (inactive) | 12.6 µM (inactive) | 8.63 µM (inactive) | 15.4 µM (inactive) | 14 µM (inactive) | 4.57 µM (inactive) | 14.5 µM (inactive) | 7.85 µM (inactive) | 12.9 µM (inactive) | 14.6 µM (inactive) | 18.1 µM (inactive) | 11.4 µM (inactive) | 16.3 µM (inactive)
COc1ccc(CC2c3cc(OC)c(OC)c(OC)c3CC[N+]2(C)C)cc1Oc1ccc(CC2c3cc4c(c(OC)c3CCN2C)OCO4)cc1 (stereo not drawn) | > 100 µM (inactive) | > 100 µM (inactive) | – | > 100 µM (inactive) | > 100 µM (inactive) | > 100 µM (inactive) | 35.5 µM (inactive) | > 100 µM (inactive) | > 100 µM (inactive) | 57.5 µM (inactive) | > 100 µM (inactive) | 52.1 µM (inactive) | 96.6 µM (inactive) | > 100 µM (inactive) | > 100 µM (inactive) | > 100 µM (inactive) | > 100 µM (inactive)
O=C(NC(=S)Nc1ccc2c(c1)Sc1ccccc1O2)c1ccccc1 | 22.6 µM (inactive) | 34.4 µM (inactive) | 51.3 µM (inactive) | 41.3 µM (inactive) | 39.9 µM (inactive) | 41 µM (inactive) | 13.5 µM (inactive) | 45.5 µM (inactive) | 31.3 µM (inactive) | 6.27 µM (inactive) | 22.2 µM (inactive) | 3.67 µM (inactive) | 20.8 µM (inactive) | 30.8 µM (inactive) | 29.5 µM (inactive) | 43.2 µM (inactive) | 20.8 µM (inactive)
O=C(CCC(NC(=O)OCc1ccccc1)C(=O)OCc1ccccc1)Nc1ccc(OCc2ccccc2)cc1 (stereo not drawn) | > 31.6 µM (inactive) | 14.1 µM (inactive) | > 10 µM (inactive) | 18.8 µM (inactive) | 17.5 µM (inactive) | 11.4 µM (inactive) | > 31.6 µM (inactive) | 19.3 µM (inactive) | 29.6 µM (inactive) | 27.2 µM (inactive) | > 31.6 µM (inactive) | 27.3 µM (inactive) | > 10 µM (inactive) | 16.3 µM (inactive) | > 31.6 µM (inactive) | > 75.7 µM (inactive) | > 31.6 µM (inactive)
